Tests used:
Type in all cases: in vivo, mouse
[1] = test system: CD-1 mice with plantar incision in the hind paw; experiment: Plantar incision postoperative pain, von Frey mechanical sensitivity
Protocol: CD-1 mice were housed in conventional shoebox cages with 3-4 mice per cage, in temperature-controlled environment (20±1° C.), on a 12:12 h light/dark cycle, with ad libitum access to filtered water and chow (Envigo Teklad 2920x, irradiated). All mice underwent plantar incision in the right hind paw. Mice were anesthetized with 5% isoflurane at 2 L/min into a sealed induction chamber then maintained with 2.5% isoflurane at 500 mL/min through a nose cone. A 5-mm longitudinal incision was created, the flexor digitorum brevis muscle was elevated, and then a longitudinal incision was made through it. Two skin sutures closed the wound, and Polysporin antibiotic was applied. The mice were subcutaneously injected with either dexamethasone (DEXA; 0.5 mg/kg/day) or saline (PBS) once per day from the day before surgery to day 6 after surgery. Also, mice were administered 100 ug/kg/day (p.o.) of beraprost sodium, a PTGIR agonist, or saline from day 5 to 8 after plantar incision surgery. Mechanical sensitivity tests were performed using von Frey filaments (using the up-down method of Dixon) before and after the surgery on days 1, 7, 9, 14, 21 and 35. Mice were individually acclimated for at least 1 hour in transparent Plexiglas enclosures (5 cm×8.5 cm by 6 cm) before withdrawal thresholds were measured.

[2] = test system: mice with chronic constriction injury (CCI) of the sciatic nerve; experiment: Chronic constriction injury (CCI) neuropathic pain, von Frey mechanical paw-withdrawal threshold; conditions: drug daily Day 0 to Day 6, vs saline
Protocol: Mice: CD-1 male and female mice aged 6-12 weeks (ICR:Crl, Charles River, St. Constant, QC) were used in these experiments. All mice were housed in standard shoebox cages with 2-4 (same-sex) per cage in a light (14:10 h, lights on at 07:00 h) and temperature-controlled (20±1° C.) environment with ad libidum access to food (Harlan Teklad 8604) and tap water. Mice were acclimated to the vivarium for 7 days post-arrival and before testing. Each mouse was used in a single drug experiment. Equal numbers of male and female mice were included in each cohort. Drugs: Dexamethasone (PromoCell, Heidelberg, Germany) was administered via daily subcutaneous injections at a dosage of 0.5 mg/kg/day. […] Before and after all injuries, mechanical paw-withdrawal threshold was measured with von Frey filaments using the up-down staircase method of Dixon (Chaplan et al., 1994), as previously described (Mogil et al., 2006). […] To quantify the acute effects of drugs on mechanical thresholds during drug exposure (on Day 4-6 after CCI or CFA), the percentage of maximum possible allodynia was quantified as: % allodynia=[(baseline threshold−post-drug threshold)/baseline threshold]×100. […] To quantify the duration of the entire CCI- or CFA-induced allodynic episode, the day-by-day mechanical thresholds of each subject was considered. […]

[3] = test system: mice with hind paw injection of complete Freund's adjuvant (CFA); experiment: CFA inflammatory pain, von Frey mechanical paw-withdrawal threshold; conditions: for allodynia during the administration period after CFA / duration of the overall allodynia episode produced by CFA: drug daily Day 0 to Day 6, diclofenac 25, morphine 5, gabapentin 100 mg/kg/day i.p., lidocaine 2% 20 μl s.c. hind paw, vs saline; for development of allodynia after CFA in dexamethasone-treated mice: hind paw injection on Day 3 and Day 5, ipsilateral to CFA, with dexamethasone; for duration of CFA allodynia in the absence of dexamethasone / CFA-induced mechanical allodynia in the absence of dexamethasone: hind paw injection on day 3 and day 5, no dexamethasone; for CFA-induced mechanical allodynia in the absence of dexamethasone: day 6 or any other time point, vs vehicle
Protocol: Mice: CD-1 male and female mice aged 6-12 weeks (ICR:Crl, Charles River, St. Constant, QC) were used in these experiments. All mice were housed in standard shoebox cages with 2-4 (same-sex) per cage in a light (14:10 h, lights on at 07:00 h) and temperature-controlled (20±1° C.) environment with ad libidum access to food (Harlan Teklad 8604) and tap water. Mice were acclimated to the vivarium for 7 days post-arrival and before testing. Each mouse was used in a single drug experiment. Equal numbers of male and female mice were included in each cohort.
Drugs: Dexamethasone (PromoCell, Heidelberg, Germany) was administered via daily subcutaneous injections at a dosage of 0.5 mg/kg/day. Diclofenac, morphine, and gabapentin were administered via intraperitoneal (i.p.) injection at a dose of 25 mg/kg/day, 5 mg/kg/day, and 100 mg/kg/day, respectively. Lidocaine was administered via subcutaneous (s.c.) injection of 20 μl of 2% lidocaine into the plantar hind paw. All drugs other than dexamethasone were purchased from Sigma-Aldrich (St. Louis, MO, USA). Anti-Ly6G (BioX Cell [InVivoPlus anti-mouse Ly6G/Ly6C (Gr-1)]) and its isotype control (BioX Cell [InVivoPlus rat IgG2b isotype control, anti-keyhole limpet hemocyanin]) were injected at a dose of 125 μg/day. S100A8 and S100A9 were injected (10 μl) into the plantar surface of the inflamed (see below) hind paw at a dose of 1 μg/day.
Neutrophils: Neutrophils were isolated using the EasySep Mouse Neutrophil Enrichment kit (Stem Cell Technologies, Vancouver, Canada) as per manufacturer's instructions. Briefly, blood was collected by cardiac puncture in a 21-gauge needle coated with 10% EDTA and pooled from 2-3 mice in PBS/2 mM EDTA. Red blood cells were lysed after incubation in 0.83% NH4Cl for 10 min at 4° C., with the reaction stopped by adding PBS+10% FBS. Cells were centrifuged at 300 g for 5 min and resuspended in PBS+10% FBS. Cells were then incubated with rat serum and enrichment cocktail for 15 min at 4° C. and centrifuged at 300 g for 10 min. Cells were then resuspended in biotin selection cocktail for 15 min at 4° C., followed by magnetic beads for an additional 10 min, and placed into the separation magnet for 3 min. Non adherent cells were removed, and adherent cells washed off of the walls of the tube and resuspended in PBS for injection. Cells (5×10^6, in 10 μl) were injected into the plantar surface of the inflamed hind paw (see below) of mice within 30 min of isolation.
In most experiments, complete Freud's adjuvant (50% CFA, 20 μl volume) was injected into the plantar surface of the mouse's left hind paw as a model of inflammatory pain.
Before and after all injuries, mechanical paw-withdrawal threshold was measured with von Frey filaments using the up-down staircase method of Dixon (Chaplan et al., 1994), as previously described (Mogil et al., 2006). In every experiment, a baseline threshold determination was made on Day 1. Drugs or cells were administered daily from Day 0 to Day 6 (dexamethasone, diclofenac, gabapentin, lidocaine), on Day 3 and Day 5 (S100A8, S100A9, and neutrophils), or every other day from Day 0 to Day 20 (anti-Ly6G). von Frey testing on Day 6 occurred 1 hour after the drug injection on that day. Testing continued until both vehicle and drug groups had returned to their baseline statistically (with the exception of CFA+diclofenac), even though not all individual mice had necessarily recovered. Thus, in an attempt to minimize the duration that mice remained in pain, the length of experiments were different depending on the assay used and the purpose of the experiment, from 40 days post drug to 120 days post-drug.
Data analysis: Time course data of von Frey thresholds are shown graphically. To quantify the acute effects of drugs on mechanical thresholds during drug exposure (on Day 4-6 after CCI or CFA), the percentage of maximum possible allodynia was quantified as: % allodynia=[(baseline threshold−post-drug threshold)/baseline threshold]×100. […]

[4] = DEXA 0.5 mg/kg/day s.c. plus beraprost sodium 100 ug/kg/day p.o. day 5 to 8

In the case of `CC#CCC(C)[C@H](O)/C=C/[C@@H]1[C@H]2c3cccc(CCCC(=O)O)c3O[C@H]2C[C@H]1O` (mixture of isomers) [beraprost, beraprost sodium], the “long-lasting DEXA-induced hyperalgesia after plantar incision” value [1, 4] is reported as “prevented long-lasting DEXA-induced hyperalgesia”, the “time to recovery after plantar incision” value [1, 4] is reported as “recovered after one week” and the “duration of hypersensitivity after plantar incision” value ([1]; DEXA 0.5 mg/kg/day s.c., no beraprost) is reported as “up to one month”.

In the case of `C[C@@H]1C[C@H]2[C@@H]3CCC4=CC(=O)C=C[C@]4(C)[C@@]3(F)[C@@H](O)C[C@]2(C)[C@@]1(O)C(=O)CO` [dexamethasone, Dexamethasone], the “hind paw allodynia at the end of the treatment period after CCI” value ([2]; day 6) is reported as “no effect”.

In the case of `O=C(O)Cc1ccccc1Nc1c(Cl)cccc1Cl` [diclofenac, Diclofenac], the “allodynia during the administration period after CFA” value [3] is reported as “reduced allodynia”, the “duration of the overall allodynia episode produced by CFA” value (“duration … by CFA” below) [3] is reported as “significantly prolonged the duration” and the “recovery to baseline / duration of CCI-induced allodynia” value [2] is reported as “prolong the duration”.

With `NCC1(CC(=O)O)CCCCC1` [gabapentin] the “allodynia during the administration period after CFA” value [3] was “reduced allodynia” and the “duration … by CFA” value [3] was “without affecting the overall duration”.

With `CCN(CC)CC(=O)Nc1c(C)cccc1C` [lidocaine, Lidocaine] the “allodynia during the administration period after CFA” value [3] was “reduced allodynia” and the “duration … by CFA” value [3] was “without affecting the overall duration”.

`CN1CC[C@]23c4c5ccc(O)c4O[C@H]2[C@@H](O)C=C[C@H]3[C@H]1C5` [morphine] was tested, and the “allodynia during the administration period after CFA” value [3] was “reduced allodynia” and the “duration … by CFA” value [3] was “without affecting the overall duration”.

B1: S100A8: neutrophil-released alarmin protein, injected into the hind paw at 1 μg/day (protein, UniProt P27005 2-89, looked up)
Protein S100-A8: PSELEKALSNLIDVYHNYSNIQGNHHALYKNDFKKMVTTECPQFVQNINIENLFRELDINSDNAINFEEFLAMVIKVGVASHKDSHKE
With B1 the “development of allodynia after CFA in dexamethasone-treated mice” value [3] was “prevented the development of allodynia entirely”, the “duration of CFA allodynia in the absence of dexamethasone” value [3] was “neither neutrophils nor S100A8/A9 significantly affected the duration” and the “CFA-induced mechanical allodynia in the absence of dexamethasone” value [3] was “No effect”.

B2: S100A9: neutrophil-released alarmin protein, injected into the hind paw at 1 μg/day (protein, UniProt P31725 2-113, looked up)
Protein S100-A9: ANKAPSQMERSITTIIDTFHQYSRKEGHPDTLSKKEFRQMVEAQLATFMKKEKRNEALINDIMEDLDTNQDNQLSFEECMMLMAKLIFACHEKLHENNPRGHGHSHGKGCGK
In the case of B2, the “development of allodynia after CFA in dexamethasone-treated mice” value [3] is reported as “prevented the development of allodynia entirely”, the “duration of CFA allodynia in the absence of dexamethasone” value [3] is reported as “neither neutrophils nor S100A8/A9 significantly affected the duration” and the “CFA-induced mechanical allodynia in the absence of dexamethasone” value [3] is reported as “No effect”.
